US7202035B2, “Genetic markers for skatole metabolism” (University of Guelph, priority 1999, dated 2007)
Values joined by “and” are separate entries in the source; they are usually repeats but may differ in a detail not shown here. Equal entries are not always repeated. “Also recorded” adds a separate entry of the source.

Assays:
[1] = rat liver microsomes incubated with 3-MI; cited from earlier work
[2] = Microsomal incubations of 3MI: production of 3MI metabolites by pig liver microsomes (HPLC); assay type: in vitro ADME; conditions: for Maximum rate of production: highest of 30 pig liver microsome samples; for Minimum rate of production: lowest of 30 pig liver microsome samples; for Rate of Production (pmol/mg prot./min) ±SD: metabolite formed from 0.4 mM 3MI, mean ±SD, n = 30
Description: Preparation of microsomes.
Microsomal incubations. […] C. (production of metabolites was determined to be linear over a range of 10 to 40 min). Incubation volumes were 0.5 ml. Reactions were started by the addition of NADPH after 3-minute preincubation periods at 37° C., and stopped with 0.5 ml of ice-cold acetonitrile. Incubations of all 30 samples were run in duplicate and for control incubations NADPH was omitted. […] A 50 μl aliquot of the clear supernatant was analyzed by high-performance liquid chromatography (HPLC).
Analytical chromatography. […] Absorbance was monitored at 250 nm; fluorescence was monitored at excitation and emission wavelengths of 286 and 350 nm, respectively. HPLC analysis for 3MI metabolites was conducted immediately after the incubations. Metabolites were identified by comparison of retention times, and co-injection of standards (spiking the metabolite mixture with authentic standards).

aldehyde oxidase [3] = experiment: Hepatic aldehyde oxidase activity measured as formation of HMOI from HMI by cytosol; assay type: in vitro ADME, pig
Text: Preparation of porcine liver cytosol.
Chromatographic analysis. […] Absorbance was monitored at 250 nm.

[4] = Skatole level in backfat of CYP2A6 deletion mutant and wild type pigs (colorimetric assay); assay type: in vivo, pig; conditions: sample with CYP2A6 deletion mutation
Description: A backfat sample was collected at the midline point of 11th rib and frozen at −20° C. until assayed for skatole. The skatole content was measured with a colorimetric assay, according to the method described by Gonzalo et al. (2000).

[5] = Measurement of 3MI fat content in backfat (colorimetric assay); assay type: in vivo, pig
Text: Measurement of 3MI fat content. For the quantitation of the 3MI fat content, a sample of backfat was taken from each pig and its 3MI content measured with a colorimetric assay (Mortensen and Sorensen, 1984). All analysis were done in duplicate.

[6] = Stability of isolated UV-1 in acetonitrile:water solution at room temperature (HPLC at 7-day intervals); assay type: physicochemical
Description: UV Spectroscopy. The UV spectrum of the metabolites identified on the basis of their retention times on HPLC (HMOI, 3MOI, I3C, and 2-aminoacetophenone) were identical to those of authentic standards. Spectra of metabolites were recorded using water as solvent, and the wavelengths of maximal absorption were as follows: HMOI: λmax (nm): 208, 253; 3MOI: λmax (nm): 205, 252; I3C: λmax (nm): 221, 278; 2-aminoacetophenone: λmax (nm): 228, 257. The UV spectrum of 3-methylindole was: λmax (nm): 224, 281. The UV spectrum of UV-1 metabolite was: λmax (nm): 204, 238. […] Isolated UV-1 was kept in acetonitrile:water solution at room temperature and the solution was analyzed by HPLC at 7-day intervals for 6 weeks. After 6 weeks only about 25% of the original compound remained and it was observed that UV-1 was converted into 3MOI.

aldehyde oxidase [7] = conditions: up to 1.0 mM in the assay mixture
aldehyde oxidase [8] = experiment: in vitro; conditions: male, pig, porcine liver cytosol, pH 7.4, probe HMI (conversion to HMOI)

SMILES	Maximum rate of production [2] [pmol/mg prot./min]	Minimum rate of production [2] [pmol/mg prot./min]	Rate of Production (pmol/mg prot./min) ±SD ([2]; pig liver microsomes)	Percentage of all 3MI metabolites produced (average) ([2]; pig liver microsomes) [%]	other results
NCC(=O)c1ccccc1 [2-aminoacetophenone]	12.7	3.4	7.8 ± 2.4 pmol/mg prot./min	0.5	Percentage of the metabolites formed [1]: 12%
O=CNCC(=O)c1ccccc1 [2-formamidoacetophenone]					Percentage of the metabolites formed [1]: 33%
CC1(O)C(=O)Nc2ccccc21 (centres unmarked) [3-hydroxy-3-methyloxindole]	516.5	118.9	272.4 ± 91.6 pmol/mg prot./min	18.5	Mean aldehyde oxidase activity (nmol HMOI/mg prot./min) (aldehyde oxidase [3]; High accumulator pigs, n 7): 0.80 nmol HMOI/mg prot./min; Mean aldehyde oxidase activity (nmol HMOI/mg prot./min) (aldehyde oxidase [3]; Low accumulator pigs, n 8): 2.73 nmol HMOI/mg prot./min; Mean aldehyde oxidase activity (nmol HMOI/mg prot./min) (aldehyde oxidase [3]; Moderate accumulator pigs, n 15): 1.40 nmol HMOI/mg prot./min; AO activity, mean (aldehyde oxidase [3]; all samples, 30 pigs): 1.27 nmol HMOI/mg protein/min; AO activity, range (aldehyde oxidase [3]; all samples, 30 pigs): 0.25 to 3.53 nmol HMOI/mg protein/min
Cc1c[nH]c2ccccc12 [3-methylindole]					Skatole level in fat versus wild type samples [4]: much higher; Mean 3-methylindole content (mg/kg) in fat ([5]; High accumulator pigs (0.2 mg/kg or more), n 7): 0.24 mg/kg; Mean 3-methylindole content (mg/kg) in fat ([5]; Low accumulator pigs (0.1 mg/kg or less), n 8): 0.09 mg/kg; Mean 3-methylindole content (mg/kg) in fat ([5]; Moderate accumulator pigs (0.11–0.19 mg/kg), n 15): 0.15 mg/kg; 3MI fat content, mean ([5]; all samples, 30 pigs): 0.15 mg/kg; 3MI fat content, range ([5]; all samples, 30 pigs): 0.07 to 0.3 mg/kg
CC1C(=O)Nc2ccccc21 (centres unmarked) [3-methyloxindole]	700.8	234.4	420.9 ± 118.1 pmol/mg prot./min	27.9	Percentage of the metabolites formed [1]: 5%
Cc1c[nH]c2ccc(O)cc12 [5-OH-3-methylindole]	27.3	0.7	5.1 ± 5.8 pmol/mg prot./min	0.3	Rate of Production (pmol/mg prot./min) ±SD ([2]; pig liver microsomes, listed as 5-OH-3MI): 5.1 pmol/mg prot./min
CC1(O)C=Nc2ccccc21 (centres unmarked) [UV-1, 3-hydroxy-3-methylindolenine]	1556.3	180.5	750.7 pmol/mg prot./min and 750.7 ± 414.5 pmol/mg prot./min	45.1	Stability (in words) [6]: unstable compound; Original compound remaining ([6]; acetonitrile:water solution, room temperature, after 6 weeks, converted into 3MOI): about 25%
Oc1ncnc2[nH]ncc12 [allopurinol]					Effect on the conversion of HMI to HMOI (aldehyde oxidase [7]): did not affect; also recorded: lack of inhibition
CCN(CC)CCCC(C)Nc1c2ccc(Cl)cc2nc2ccc(OC)cc12 (centres unmarked) [quinacrine]					activity at 10 min, 50 µM (aldehyde oxidase [8]): 75.5%; activity at 10 min, 1 mM (aldehyde oxidase [8]): 43.4%

Continued, in another order:

Maximum rate of production [2] [pmol/mg prot./min]	Minimum rate of production [2] [pmol/mg prot./min]	Rate of Production (pmol/mg prot./min) ±SD ([2]; pig liver microsomes)	Percentage of all 3MI metabolites produced (average) ([2]; pig liver microsomes) [%]	SMILES	other results
213.7		58.4 ± 47.2 pmol/mg prot./min	4.9	Cc1c[nH]c2cc(O)ccc12 [6-OH-3-methylindole, 6-OH-3-methylindole]	Average rate of production relative to the 5 isomer ([2]; 6-OH-3MI versus 5-OH-3MI, pig liver microsomes): approximately eleven times greater
85.7	12.1	37.1 ± 15.8 pmol/mg prot./min		OCc1c[nH]c2ccccc12 [Indole-3-carbinol, indole-3-carbinol]	
